Assay results from PubChem BioAssay AID248 (DTP/NCI, 2004).
Several values for one entry are separate records, joined by “and”; a condition that tells them apart may be missing. Identical values can stand only once. Inconclusive results and toxic doses are left out. No stated cut-off is given here; in the data, active means T/C of 150% or more; inactive means T/C below 125%.

Tested on: L1210 leukemia ip in BDF1 mice, survival T/C
Assay: NCI In Vivo Anticancer Drug Screen. Data for tumor model L1210 Leukemia (intraperitoneal) in B6D2F1 (BDF1) mice
Conditions: endpoint: mean survival time, higher = longer survival
How it was run: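 Tumor cells were implanted, animals were treated, and survival was followed. The result divides the treated measurement by the vehicle-control measurement.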

[1] = dose: 12.5 mg/kg/injection, schedule: Q01DX009 (ip), vehicle: saline
[2] = dose: 25.0 mg/kg/injection, schedule: Q01DX009 (ip), vehicle: saline
[3] = dose: 25.0 mg/kg/injection, schedule: Q04DX003 (ip), vehicle: saline
[4] = dose: 100.0 mg/kg/injection, schedule: Q04DX003 (ip), vehicle: saline
[5] = dose: 100.0 mg/kg/injection, schedule: Q04DX002 (ip), vehicle: Klucel (hydroxypropylcellulose) (HPC)
[6] = dose: 200.0 mg/kg/injection, schedule: Q04DX002 (ip), vehicle: Klucel (hydroxypropylcellulose) (HPC)
[7] = dose: 50.0 mg/kg/injection, schedule: Q01DX001 (ip), vehicle: saline
[8] = dose: 100.0 mg/kg/injection, schedule: Q01DX001 (ip), vehicle: saline
[9] = dose: 200.0 mg/kg/injection, schedule: Q01DX001 (ip), vehicle: saline
[10] = dose: 400.0 mg/kg/injection, schedule: Q04DX002 (ip), vehicle: Klucel (hydroxypropylcellulose) (HPC)
[11] = dose: 100.0 mg/kg/injection, schedule: Q04DX003 (ip), vehicle: saline with Tween-80
[12] = dose: 200.0 mg/kg/injection, schedule: Q04DX003 (ip), vehicle: saline with Tween-80
[13] = dose: 400.0 mg/kg/injection, schedule: Q04DX003 (ip), vehicle: saline with Tween-80
[14] = dose: 100.0 mg/kg/injection, schedule: Q04DX002 (ip), vehicle: saline with Tween-80
[15] = dose: 200.0 mg/kg/injection, schedule: Q04DX002 (ip), vehicle: saline with Tween-80

Measured: T/C

COc1cc2c(cc1OC)CC[N+](C)=C2
inactive: [1] 92 % of control | [2] 95 % of control | [3] 108 % of control | dose: 50.0 mg/kg/injection, schedule: Q01DX009 (ip), vehicle: saline 93 % of control | dose: 50.0 mg/kg/injection, schedule: Q04DX003 (ip), vehicle: saline 100 % of control | dose: 100.0 mg/kg/injection, schedule: Q01DX009 (ip), vehicle: saline 96 % of control | [4] 103 % of control and 106 % of control

COc1ccc(NC(=S)Nc2ccc(-c3ccc(NC(=S)Nc4ccc(OC)cc4)cc3)cc2)cc1
inactive: [5] 87 % of control | [6] 87 % of control

O=C1NCCCC1c1nc2cccc3c2n1CCC3 (stereo unspecified)
inactive: dose: 100.0 mg/kg/injection, schedule: Q04DX003 (ip), vehicle: Klucel (hydroxypropylcellulose) (HPC) 94 % of control | dose: 200.0 mg/kg/injection, schedule: Q04DX003 (ip), vehicle: Klucel (hydroxypropylcellulose) (HPC) 108 % of control | dose: 400.0 mg/kg/injection, schedule: Q04DX003 (ip), vehicle: Klucel (hydroxypropylcellulose) (HPC) 97 % of control

c1ccc(-c2nc3nnnn3nc2-c2ccccc2)cc1
inactive: [7] 100 % of control | [8] 103 % of control | [9] 98 % of control

CCOC(=O)CNc1ccc(C(F)(F)F)cc1
inactive: [5] 104 % of control | [6] 104 % of control | [10] 97 % of control

COc1ccc(OC)c(/C=C/C(=O)NCC(O)CO)c1 (stereo unspecified)
inactive: [11] 105 % of control | [12] 105 % of control | [13] 103 % of control

C=CCCCCCCCCC(=O)N/N=C/c1cccs1
inactive: dose: 100.0 mg/kg/injection, schedule: Q01DX009 (ip), vehicle: Klucel (hydroxypropylcellulose) (HPC) 95 % of control | dose: 200.0 mg/kg/injection, schedule: Q01DX009 (ip), vehicle: Klucel (hydroxypropylcellulose) (HPC) 100 % of control | dose: 400.0 mg/kg/injection, schedule: Q01DX009 (ip), vehicle: Klucel (hydroxypropylcellulose) (HPC) 105 % of control

CC1(C)C2CCC1(C)C(OCC(=O)O)C2 (stereo unspecified)
inactive: [5] 96 % of control | [6] 121 % of control | [10] 102 % of control

N#CCC(=O)N/N=C/c1cc(Cl)cc(Cl)c1O
inactive: [14] 108 % of control | [15] 97 % of control | dose: 400.0 mg/kg/injection, schedule: Q04DX002 (ip), vehicle: saline with Tween-80 93 % of control

[O-]c1on[n+](C2CCCCC2)c1-c1ccccc1
inactive: [11] 95 % of control | [12] 91 % of control | [13] 101 % of control

CC(=O)OCC(=O)[C@@]1(O)CC[C@H]2[C@@H]3C[C@H](F)C4=CC(=O)CC[C@]4(C)[C@H]3C(=O)C[C@@]21C
inactive: dose: 0.78 mg/kg/injection, schedule: Q01DX005 (ip), vehicle: saline 102 % of control | dose: 1.56 mg/kg/injection, schedule: Q01DX005 (ip), vehicle: saline 102 % of control | dose: 3.12 mg/kg/injection, schedule: Q01DX005 (ip), vehicle: saline 104 % of control | dose: 100.0 mg/kg/injection, schedule: Q01DX001 (sc), vehicle: steriod suspending solution 96 % of control | dose: 200.0 mg/kg/injection, schedule: Q01DX001 (sc), vehicle: steriod suspending solution 104 % of control | dose: 400.0 mg/kg/injection, schedule: Q01DX001 (sc), vehicle: steriod suspending solution 102 % of control

CC(O)(C(F)(F)F)C(C)(O)C(F)(F)F (stereo unspecified)
inactive: [14] 86 % of control | [15] 91 % of control

CCCCCCCC(=O)CCCCC
inactive: dose: 100.0 mg/kg/injection, schedule: Q01DX009 (ip), vehicle: saline with Tween-80 102 % of control | [4] 98 % of control | dose: 200.0 mg/kg/injection, schedule: Q01DX009 (ip), vehicle: saline with Tween-80 109 % of control | dose: 200.0 mg/kg/injection, schedule: Q04DX003 (ip), vehicle: saline 96 % of control | dose: 400.0 mg/kg/injection, schedule: Q01DX009 (ip), vehicle: saline with Tween-80 100 % of control | dose: 400.0 mg/kg/injection, schedule: Q04DX003 (ip), vehicle: saline 93 % of control

Cc1ccc2c(=O)n(C)c(=O)n(C)c2n1
inactive: [5] 106 % of control | [6] 106 % of control | [10] 106 % of control

Nc1ccc(C(=O)N/N=C/C=C/c2ccccc2)cc1
inactive: [5] 105 % of control | [6] 96 % of control | [10] 99 % of control

N#Cc1cc(Cl)cn1O
inactive: dose: 100.0 mg/kg/injection, schedule: Q04DX002 (ip), vehicle: other 91 % of control | dose: 200.0 mg/kg/injection, schedule: Q04DX002 (ip), vehicle: other 99 % of control

Cn1nc(NN)c2cccnc21
inactive: dose: 75.0 mg/kg/injection, schedule: Q01DX001 (ip), vehicle: other 103 % of control | dose: 150.0 mg/kg/injection, schedule: Q01DX001 (ip), vehicle: other 104 % of control

Brc1ccc([I+]c2ccccc2)cc1
inactive: [7] 103 % of control | [8] 106 % of control | [9] 95 % of control

CC(=O)NC(C(=O)O)C(C)C (stereo unspecified)
inactive: [8] 97 % of control | [9] 87 % of control | dose: 400.0 mg/kg/injection, schedule: Q01DX001 (ip), vehicle: saline 99 % of control

O=Cc1ccc(O)c(CN2CCCCC2)c1
inactive: dose: 6.25 mg/kg/injection, schedule: Q01DX009 (ip), vehicle: saline 94 % of control | dose: 6.25 mg/kg/injection, schedule: Q04DX003 (ip), vehicle: saline 100 % of control | [1] 107 % of control | dose: 12.5 mg/kg/injection, schedule: Q04DX003 (ip), vehicle: saline 96 % of control | [2] 96 % of control | [3] 103 % of control

CNC(=O)Oc1cccc(NC(=O)OCC(C)(C)C)c1
inactive: [11] 96 % of control | [12] 102 % of control | [13] 97 % of control

Cc1ccc(N=CNN=C(N)N)cc1
inactive: dose: 120.0 mg/kg/injection, schedule: Q01DX Z (oral), vehicle: methylcellulose (MC) 97 % of control | dose: 240.0 mg/kg/injection, schedule: Q01DX Z (ip), vehicle: methylcellulose (MC) 101 % of control | dose: 240.0 mg/kg/injection, schedule: Q01DX Z (oral), vehicle: methylcellulose (MC) 96 % of control | dose: 360.0 mg/kg/injection, schedule: Q01DX Z (ip), vehicle: methylcellulose (MC) 104 % of control | dose: 480.0 mg/kg/injection, schedule: Q01DX Z (ip), vehicle: methylcellulose (MC) 102 % of control | dose: 480.0 mg/kg/injection, schedule: Q01DX Z (oral), vehicle: methylcellulose (MC) 92 % of control

C[N+](C)(C)c1cc2c(nn1)Nc1ccccc1S2
inactive: [7] 123 % of control | [8] 116 % of control

O=C(NCC1CC1)Nc1cccc2ccccc12
inactive: dose: 100.0 mg/kg/injection, schedule: Q01DX009 (ip), vehicle: other 98 % of control | dose: 200.0 mg/kg/injection, schedule: Q01DX009 (ip), vehicle: other 89 % of control | dose: 400.0 mg/kg/injection, schedule: Q01DX009 (ip), vehicle: other 92 % of control

CC[PH+]1c2ccccc2Oc2ccccc21.CC[PH+]1c2ccccc2Oc2ccccc21.[Br][Pd][Br]
inactive: dose: 12.5 mg/kg/injection, schedule: Q04DX003 (ip), vehicle: saline with Tween-80 98 % of control | dose: 25.0 mg/kg/injection, schedule: Q04DX003 (ip), vehicle: saline with Tween-80 98 % of control | dose: 50.0 mg/kg/injection, schedule: Q04DX003 (ip), vehicle: saline with Tween-80 98 % of control
